Laboratory results reported in PMC8344021, “Discovery of Small Molecule Bak Activator for Lung Cancer Therapy” (Theranostics, 2021).

Legend:
human Bak protein = target: T1, human Bak protein (Homo sapiens, UniProt Q16611); experiment: Competitive fluorescence polarization (FP) assay with fluorescent Bak BH3 peptide; assay type: binding; conditions: purified human Bak protein, fluorescent Bak BH3 domain peptide; mean ± SD, n = 3
T1 construct: purchased Creative Biomart BAK1-26166TH
Text: To confirm the binding of BKA-073 with Bak, we first conducted a competitive fluorescence polarization (FP) assay using purified human Bak protein, fluorescent Bak BH3 domain peptide, and BKA-073 as described, [37]-[40]. […] There are multiple amino acid differences in the BH3 domains between Bak and other Bcl2 family members, which helps to explain why BKA-073 only binds to Bak but not to other Bcl2 family members (i.e. Bax, Bcl2, Bcl-XL, Bcl-w and Mcl-1). In addition to the FP assay, isothermal titration calorimetry (ITC) was also employed to measure Bak/BKA-073 binding. […] In addition to human Bak/BKA-073 binding, we measured mouse Bak/BKA-073 binding using ITC.
(1 x 10^5 cells) was transferred to a 5 ml culture tube, followed by the addition of 5 μl of FITC Annexin V and 5 μl propidium iodide (PI). […] Samples were analyzed by flow cytometry (BD FACSCantoTMII, BD Biosciences, San Jose, CA). ∆% cell death was calculated with the formula: (% cell death treated - % cell death non-treated) as described […]
Fluorescence polarization (FP) assay
Fluorescence polarization assay was carried out as described previously. […] The FP values (in millipolarization units) were measured using a fluorescence microplate reader at 485/530 nm (Gemini XPS, Molecular Devices). Data analysis and inhibit ory constant (Ki) value was determined by GraphPad prism software as described. […]

[1] = system: Bak oligomerization in A549 cells; experiment: Bak oligomerization by cross-linking with BMH; assay type: cell-based, human; conditions: 1μM, 24h, mitochondrial fraction, Western blot
Protocol: Bak oligomerization was analyzed as described. Briefly, 10 mM Bis (maleimido) hexane (BMH) was added to the mitochondrial fraction dissolved in conjugation buffer (PBS, pH7.2) and 5mM EDTA was added for crosslinking between sulfhydryl groups of Bak proteins. The reaction mixture was incubated for 1h at room temperature. The reaction was stopped by adding quench solution (1M DTT) for 15min at room temperature. The reaction product was subjected to SDS-PAGE gel and analyzed by Western blot using a Bak antibody.
A pivotal step in the apoptosis process is the oligomerization of Bak, [44]. To assess whether BKA-073 affects the ability of Bak to form oligomers in the mitochondrial membrane, a cross-linking study with Bis (maleimido) hexane (BMH) was carried out. […] These findings indicate that BKA-073 can activate Bak through its oligomerization in mitochondria. It is known that formation of Bak oligomers in mitochondria promotes cytochrome c (Cyt c) release to induce apoptosis, [46].

T1 sequence (Q16611 whole entry, the tested form may be a part): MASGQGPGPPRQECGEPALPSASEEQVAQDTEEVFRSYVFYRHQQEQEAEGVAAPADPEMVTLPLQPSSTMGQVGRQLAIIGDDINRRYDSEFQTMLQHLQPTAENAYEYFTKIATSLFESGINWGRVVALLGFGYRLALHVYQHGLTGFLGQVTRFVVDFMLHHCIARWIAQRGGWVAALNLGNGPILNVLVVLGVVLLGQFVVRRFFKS

For `COc1ccc2nc3ccccc3c(NCCNCC(C)O)c2c1` (centres unmarked) [BKA-073], the Ki (human Bak protein) was 72.3 ± 5.96 nM and the Bak oligomerization [1] was “facilitated the formation of Bak dimers and trimers”.
